Source: patent publication US5646246A, “Isolation and structural elucidation of the human cancer cell growth inhibitory cyclic peptides phakellistatin 4, 5, 6, 7, 8 and 9” (Arizona Board of Regents acting on behalf of Arizona State …, priority 1994, dated 1997)
In brackets after ≈: the same amount, converted by molar mass. Where a SMILES comes first, the peptide text is derived from it.

What was measured:
Assay type in all cases: cell-based
[1] = system: murine lymphocytic leukemia P388; test: in vitro murine P388 lymphocytic leukemia cell growth inhibition; settings: dose reducing percent growth to 50%
From the text: The following measures are used to express drug activity by giving the drug dose which reduces cell growth to a specified percentage of growth:
(§1) ED50 (P388) and GI50 (HTCL) are the drug doses needed to reduce the percent growth to 50%. There is no mathematical difference between ED50 and GI50, which are both calculated using the same formula. The only difference is historical usage. TGI, (Total Growth Inhibition), is the drug dose needed to yield zero percent growth, i.e., just as many cells at the end of the experiment as were present in the beginning. Whether just as many cells were killed as were produced (steady state), or no growth occurred (total inhibition), cannot be distinguished.
(§2) Each drug is tested at five (5) doses: 100--10--1--0.1--0.01 μg/ml. Percent Growths are calculated for each dose. The two (or three) doses with growth values above, below, (or near to) 50% growth are used to calculate the ED50 /GI50 using a linear regression formula. The log of the dose is used during the regression computation. If no dose yields a growth value under 50%, the results are expressed as: ED50 >(highest dose). If no dose yields growth higher than 50% growth, then ED50 <(lowest dose). Similar calculations are performed for the TGI at 0% growth, and at -50% growth for the LC50.
(§3) At the start of an experiment, cells from the in vitro cell cultures are inoculated into the appropriate tubes or microtiter plates. One set of control tubes/plates is immediately counted to determine the number of cells at the start of the experiment. This is the "baseline count", or "Tzero reading". At the end of the experiment (48 hours later), a second set of control tubes/plates is analyzed to determine the "Control Growth" value. The growth (or death) of cells relative to the initial quantity of cells is used to define the "Percent of Growth".

[2] = system: NCI human cancer cell line panel; test: NCI human cancer cell line panel, in vitro primary screen; settings: for in vitro growth inhibitory activity against human cancer cell lines: result in words
From the text: Current research in the control of cancer in the U.S. is coordinated by the National Cancer Institute (NCI). To determine whether a substance has anti-cancer properties, the NCI has established a systematic protocol. This protocol, which involves the testing of a substance against a standard cell line panel containing 60 human tumor cell lines, has been verified and is accepted in scientific circles. The protocol, and the established statistical means for analyzing the results obtained by the standardized testing are fully described in the literature. See: Boyd, Dr. Michael R., Principles & Practice of Oncology, PPO Updates, Volume 3, Number 10, October 1989, for a general overview of the testing protocol; Monks, Anne et al., "Feasibility of a High-Flux Anticancer Drug Screen Using a Diverse Panel of Cultured Human Tumor Cell Lines", 83 J. Nat. Cancer Inst., No. 11, 757 (1991); and Paull, K. D., "Display and Analysis of Patterns of Differential Activity of Drugs Against Human Tumor Cell Lines; Development of Mean Graph and COMPARE Algorithm", 81 Journal of the National Cancer Institute Reports, No. 14, 1088, (1989), for a description of the methods of statistical analysis. Each of these references are incorporated herein by this reference thereto.
as §1
LC50, (Lethal Concentration 50%), is the drug concentration which reduces growth to -50%, i.e., removes half of the cells originally present at the beginning of the experiment.
as §2, §3

[3] = system: OVCAR-3; test: human cancer cell line growth inhibition, ovarian OVCAR-3
From the text: as §1
(§4) Each drug is tested at five (5) doses: 100--10--1--0.1--0.01 μg/ml. Percent Growths are calculated for each dose. The two (or three) doses with growth values above, below, (or near to) 50% growth are used to calculate the ED50 /GI50 using a linear regression formula. […]
as §3

[4] = system: SF-295; test: human cancer cell line growth inhibition, CNS SF-295
From the text: as §1, §4, §3

[5] = system: A498; test: human cancer cell line growth inhibition, renal A498
From the text: as §1, §4, §3

[6] = system: NCI-H460; test: human cancer cell line growth inhibition, lung NCI-H460
From the text: as §1, §4, §3

[7] = system: KM20L2; test: human cancer cell line growth inhibition, colon KM20L2
From the text: as §1, §4, §3

[8] = system: SK-MEL-5; test: human cancer cell line growth inhibition, melanoma SK-MEL-5
From the text: as §1, §4, §3

Structure (SMILES) | ED50 (P388) [1] [µg/mL] | GI50 ([2]; NCI human cancer cell line panel, quadruplicate experiments) [µM] | in vitro growth inhibitory activity against human cancer cell lines [2] | GI50 ovarian OVCAR-3 [3] [µg/mL] | GI50 CNS SF-295 [4] [µg/mL] | GI50 renal A498 [5] [µg/mL] | GI50 lung NCI-H460 [6] [µg/mL] | GI50 colon KM20L2 [7] [µg/mL] | GI50 melanoma SK-MEL-5 [8] [µg/mL]
CC[C@H](C)[C@@H]1NC(=O)[C@H](C)NC(=O)[C@H](CCSC)NC(=O)[C@H](C)NC(=O)[C@@H](CC(N)=O)NC(=O)[C@H](Cc2ccccc2)NC(=O)[C@@H]2CCCN2C1=O [phakellistatin 5, cyclo-(Pro-Phe-Asn-Ala-Met-Ala-Ile)] | 0.23 (≈ 0.309 µM) | ~3 | growth inhibitory activity was also demonstrated |  |  |  |  |  | 
CC[C@H](C)[C@@H]1NC(=O)[C@@H]2CCCN2C(=O)[C@H](CC(C)C)NC(=O)C(Cc2c[nH]c3ccccc23)NC(=O)[C@@H]2CCCN2C(=O)[C@H](Cc2ccccc2)NC(=O)[C@@H]2CCCN2C1=O (stereo partly drawn) [phakellistatin 6, cyclo-(Pro-Trp-Leu-Pro-Ile-Pro-Phe)] | 0.18 (≈ 0.212 µM) |  | growth inhibitory activity was also demonstrated | 0.025 (≈ 0.0294 µM) | 0.041 (≈ 0.0482 µM) | 0.078 (≈ 0.0917 µM) | 0.019 (≈ 0.0223 µM) | 0.021 (≈ 0.0247 µM) | 0.032 (≈ 0.0376 µM)
CC[C@H](C)[C@@H]1NC(=O)[C@@H]2CCCN2C(=O)[C@@H]2CCCN2C(=O)[C@H]([C@@H](C)CC)NC(=O)[C@H](Cc2ccc(O)cc2)NC(=O)[C@@H]2CCCN2C(=O)[C@@H]2CCCN2C(=O)[C@H](CC(C)C)NC(=O)[C@H](C)NC(=O)[C@H](Cc2ccccc2)NC1=O [phakellistatin 7, cyclo-(Pro-Pro-Ile-Phe-Ala-Leu-Pro-Pro-Tyr-Ile)] (cyclo(ALPPYIPPIF)) | 3.0 (≈ 2.7 µM) |  | growth inhibitory activity was also demonstrated |  |  |  |  |  | 
CC[C@H](C)[C@@H]1NC(=O)[C@@H]2CCCN2C(=O)[C@@H]2CCCN2C(=O)[C@H]([C@@H](C)CC)NC(=O)[C@H](Cc2ccc(O)cc2)NC(=O)[C@@H]2CCCN2C(=O)[C@@H]2CCCN2C(=O)[C@H](CC(C)C)NC(=O)[C@H](C(C)C)NC(=O)[C@H](Cc2ccccc2)NC1=O [phakellistatin 8, cyclo-(Pro-Pro-Ile-Phe-Val-Leu-Pro-Pro-Tyr-Ile)] (cyclo(FVLPPYIPPI)) | 4.1 (≈ 3.6 µM) |  | growth inhibitory activity was also demonstrated |  |  |  |  |  | 
CC[C@H](C)[C@@H]1NC(=O)[C@@H]2CCCN2C(=O)[C@@H]2CCCN2C(=O)[C@H](C(C)C)NC(=O)[C@H](Cc2ccc(O)cc2)NC(=O)[C@@H]2CCCN2C(=O)[C@@H]2CCCN2C(=O)[C@H](CC(C)C)NC(=O)[C@H](C(C)C)NC(=O)[C@H](Cc2ccccc2)NC1=O [phakellistatin 9, cyclo-(Pro-Pro-Ile-Phe-Val-Leu-Pro-Pro-Tyr-Val)] (cyclo(FVLPPYVPPI)) | 1.7 (≈ 1.51 µM) |  | growth inhibitory activity was also demonstrated |  |  |  |  |  | 
